Results as given in patent US20210198277A1, “AMINE-SUBSTITUTED ARYL OR HETEROARYL COMPOUNDS” (Epizyme, Inc., priority 2016, published 2021).

Tests used:
human EHMT2 913-1193 = molecular target: T1, human EHMT2 913-1193 (Homo sapiens, UniProt Q96KQ7); assay: EHMT2 enzyme assay on histone peptide substrate (EHMT2 PEP); format: biochemical; conditions: Table III; read-out: EHMT2 PEP (IC50 μM)
T1 construct: recombinant purified human EHMT2 913-1193, Viva; purchased Viva
T1 sequence (Q96KQ7 913-1193): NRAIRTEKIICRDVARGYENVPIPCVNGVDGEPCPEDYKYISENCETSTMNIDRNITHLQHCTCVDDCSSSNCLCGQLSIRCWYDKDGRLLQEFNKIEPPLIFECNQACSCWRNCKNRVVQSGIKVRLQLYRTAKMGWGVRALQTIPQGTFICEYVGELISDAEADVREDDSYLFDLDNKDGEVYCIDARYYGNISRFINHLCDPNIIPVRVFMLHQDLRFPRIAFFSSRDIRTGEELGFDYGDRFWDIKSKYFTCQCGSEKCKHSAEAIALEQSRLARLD
Summary of the method: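 Compounds were tested as 3-fold dilutions, 10 points from a 50 μM final top (2% DMSO), after 30-min preincubation with 0.031 nM enzyme in Bicine buffer pH 7.5. Transfer of ^3H-methyl from ^3H-SAM to biotinylated histone peptide ran 60 min at room temperature and was detected by streptavidin Flashplate scintillation.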

EHMT1 = molecular target: T2, EHMT1 (Homo sapiens, UniProt Q9H9B1); assay: EHMT1 enzyme assay on peptide substrate (EHMT1 PEP); format: biochemical; conditions: Table III; read-out: EHMT1 PEP (IC50 μM)
T2 sequence (Q9H9B1 1-1298): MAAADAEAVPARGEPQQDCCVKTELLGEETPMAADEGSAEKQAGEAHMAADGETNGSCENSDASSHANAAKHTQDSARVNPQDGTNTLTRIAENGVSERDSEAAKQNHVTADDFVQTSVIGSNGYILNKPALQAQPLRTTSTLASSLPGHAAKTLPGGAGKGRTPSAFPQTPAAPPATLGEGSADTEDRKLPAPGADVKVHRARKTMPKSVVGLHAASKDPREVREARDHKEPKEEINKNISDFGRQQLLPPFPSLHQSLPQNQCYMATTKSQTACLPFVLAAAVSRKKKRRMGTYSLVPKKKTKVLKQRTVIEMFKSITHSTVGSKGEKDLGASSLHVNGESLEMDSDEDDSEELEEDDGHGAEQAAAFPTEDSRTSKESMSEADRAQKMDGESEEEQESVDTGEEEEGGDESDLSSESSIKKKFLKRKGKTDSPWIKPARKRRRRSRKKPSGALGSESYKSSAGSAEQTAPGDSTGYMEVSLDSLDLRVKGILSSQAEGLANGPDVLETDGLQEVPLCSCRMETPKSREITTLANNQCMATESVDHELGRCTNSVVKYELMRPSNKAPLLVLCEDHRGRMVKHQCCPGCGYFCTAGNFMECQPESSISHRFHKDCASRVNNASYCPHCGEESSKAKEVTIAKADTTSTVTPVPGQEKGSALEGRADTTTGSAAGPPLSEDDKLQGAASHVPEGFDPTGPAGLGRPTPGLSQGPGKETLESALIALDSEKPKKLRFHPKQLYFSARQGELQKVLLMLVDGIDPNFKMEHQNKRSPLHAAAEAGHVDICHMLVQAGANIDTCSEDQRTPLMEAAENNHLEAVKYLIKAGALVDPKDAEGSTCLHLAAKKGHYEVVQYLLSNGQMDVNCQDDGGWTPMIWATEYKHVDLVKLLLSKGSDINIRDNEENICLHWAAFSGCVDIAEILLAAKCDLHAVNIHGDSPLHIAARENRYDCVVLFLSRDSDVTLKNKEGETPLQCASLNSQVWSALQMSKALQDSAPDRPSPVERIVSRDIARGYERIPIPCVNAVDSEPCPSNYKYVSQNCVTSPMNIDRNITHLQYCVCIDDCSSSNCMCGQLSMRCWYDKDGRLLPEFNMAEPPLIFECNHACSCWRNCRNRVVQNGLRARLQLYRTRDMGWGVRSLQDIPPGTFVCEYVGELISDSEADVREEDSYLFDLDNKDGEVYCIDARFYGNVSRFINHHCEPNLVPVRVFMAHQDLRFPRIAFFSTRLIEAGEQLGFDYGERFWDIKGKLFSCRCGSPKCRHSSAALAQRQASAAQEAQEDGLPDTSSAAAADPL

Structure (SMILES) | IC50 (human EHMT2 913-1193) [µM] | IC50 (EHMT1) [µM]
CNc1cc(C)nc(Nc2ccc(OC)c(O[C@H]3C[C@@H](N(C)C)C3)c2)n1 (single isomer, unassigned) [Compound 317, N^2-(3-((1s,3s)-3-(dimethylamino)cyclobutoxy)-4-methoxyphenyl)-N^4,6-dimethylpyrimidine-2,4-diamine] | 1 to 10 | > 10
CNc1ccnc(Nc2cccc(COCCN3CCCC3)n2)c1 [Compound 267, N^4-methyl-N^2-(6-((2-(pyrrolidin-1-yl)ethoxy)methyl)pyridin-2-yl)pyridine-2,4-diamine] | > 10 | > 10
CNc1cc(Nc2cccc(COCCN3CCCC3)n2)ccn1 [Compound 268, N^2-methyl-N^4-(6-((2-(pyrrolidin-1-yl)ethoxy)methyl)pyridin-2-yl)pyridine-2,4-diamine] | > 10 | > 10
CNc1nc(C2CCN(C)CC2)c2cc(OC)c(OCCCN3CCCC3)cc2n1 [Compound 270] | < 0.1 | < 0.1
CNc1ccnc(Nc2ccc(OC)c(OCCCN3CC[C@H](F)C3)c2)n1 [Compound 271] | 1 to 10 | 0.1 to 1
CNc1cc(Nc2ccc(OC)c(OCCCN3CCCC3)c2)ncc1F [Compound 272, 5-fluoro-N^2-(4-methoxy-3-(3-(pyrrolidin-1-yl)propoxy)phenyl)-N^4-methylpyridine-2,4-diamine] | 0.1 to 1 | 1 to 10
CNc1cc(Nc2ccc(OC)c(OCCCN3CCCC3)c2)cc(C(F)(F)F)n1 [Compound 273] | > 10 | > 10
CNc1ccnc(Nc2cccc(N3CCC(N)C3=O)c2)n1 (stereo not drawn) [Compound 274] | 1 to 10 | 1 to 10
CNc1ccnc(Nc2cccc(N3CCC(N(C)C)C3=O)c2)n1 (stereo not drawn) [Compound 275] | > 10 | > 10
CNc1ccnc(Nc2cccc(OCC(F)CN3CCCC3)c2)n1 (stereo not drawn) [Compound 276, N^2-(3-(2-fluoro-3-(pyrrolidin-1-yl)propoxy)phenyl)-N^4-methylpyrimidine-2,4-diamine] | > 10 | 1 to 10
CNc1ccnc(Nc2cccc(OCC(F)(F)CN3CCCC3)c2)n1 [Compound 277, N^2-(3-(2,2-difluoro-3-(pyrrolidin-1-yl)propoxy)phenyl)-N^4-methylpyrimidine-2,4-diamine] | > 10 | > 10
COc1ccc(Nc2nccc(NCC3CC(C)(C)NC(C)(C)C3)n2)cc1OCCCN1CCCC1 [Compound 278] | < 0.1 | < 0.1
CNc1ccnc(Nc2cccc(C(C)OCCN3CCCC3)c2)n1 (stereo not drawn) [Compound 279, N^4-methyl-N^2-(3-(1-(2-(pyrrolidin-1-yl)ethoxy)ethyl)phenyl) pyrimidine-2,4-diamine] | > 10 | > 10
CCN(CC)CCCOc1cc(Nc2nccc(NC)n2)ccc1OC [Compound 280, N^2-(3-(3-(diethylamino)propoxy)-4-methoxyphenyl)-N^4-methylpyrimidine-2,4-diamine] | 1 to 10 | 1 to 10
CNc1ccnc(Nc2ccc(OC)c(OCCCN3CCC(S(C)(=O)=O)C3)c2)n1 (stereo not drawn) [Compound 282] | > 10 | > 10
CNc1ccnc(Nc2ccc(OC)c(OCCCN3CCC(OC)C3)c2)n1 (stereo not drawn) [Compound 283, N^2-(4-methoxy-3-(3-(3-methoxypyrrolidin-1-yl)propoxy)phenyl)-N^4-methylpyrimidine-2,4-diamine] | < 0.1 | < 0.1

Continued, values first:

IC50 (human EHMT2 913-1193) [µM] | IC50 (EHMT1) [µM] | Structure (SMILES)
> 10 | > 10 | CNc1ccnc(Nc2ccc(OC)c(OC[C@@H]3CN(C)C[C@H]3C)c2)n1 (single isomer, unassigned) [Compound 438]
0.1 to 1 | 0.1 to 1 | CNc1ccnc(Nc2ccc(OC)c(OC[C@H]3CN(C)C[C@@H]3C)c2)n1 (single isomer, unassigned) [Compound 439]
> 10 | > 10 | CNc1ccnc(Nc2ccc(OC)c(OCCCN3CCC4(COC4)C3)c2)n1 [Compound 284]
> 10 | > 10 | CNc1ccnc(Nc2ccc(OC)c(OCCCN3CCC(C(F)(F)F)C3)c2)n1 (stereo not drawn) [Compound 285, N^2-(4-methoxy-3-(3-(3-(trifluoromethyl)pyrrolidin-1-yl)propoxy)phenyl)-N^4-methylpyrimidine-2,4-diamine]
< 0.1 | 0.1 to 1 | CNc1ccnc(Nc2ccc(OC)c(OCCCN3CCC(O)C3)c2)n1 (stereo not drawn) [Compound 286, 1-(3-(2-methoxy-5-((4-(methylamino)pyrimidin-2-yl)amino)phenoxy)propyl)pyrrolidin-3-ol]
> 10 | > 10 | CNc1ccnc(Nc2ccc(OC)c(OCCCN3CCC(C#N)C3)c2)n1 (stereo not drawn) [Compound 287, 1-(3-(2-methoxy-5-((4-(methylamino)pyrimidin-2-yl)amino)phenoxy)propyl)pyrrolidine-3-carbonitrile]
0.1 to 1 | 0.1 to 1 | CNc1ccnc(Nc2ccc(OC)c(OCCC3CCCN3C)c2)n1 (stereo not drawn) [Compound 288, N^2-(4-methoxy-3-(2-(1-methylpyrrolidin-2-yl)ethoxy)phenyl)-N^4-methylpyrimidine-2,4-diamine]
0.1 to 1 | < 0.1 | CNc1ccnc(Nc2ccc(OC)c(OCC3CCCN3C)c2)n1 (stereo not drawn) [Compound 289, N^2-(4-methoxy-3-((1-methylpyrrolidin-2-yl)methoxy)phenyl)-N^4-methylpyrimidine-2,4-diamine]
0.1 to 1 | 0.1 to 1 | CNc1ccnc(Nc2ccc(OC)c(OCCCN3CCCC3C)c2)n1 (stereo not drawn) [Compound 290, N^2-(4-methoxy-3-(3-(2-methylpyrrolidin-1-yl)propoxy)phenyl)-N^4-methylpyrimidine-2,4-diamine]
> 10 | > 10 | CCNC(=O)c1cc(Nc2nccc(NC)n2)ccn1 [Compound 291, N-ethyl-4-((4-(methylamino)pyrimidin-2-yl)amino)picolinamide]
1 to 10 | 0.1 to 1 | CNc1ccnc(Nc2ccc(OC)c(OCCCN3CCC(C)C3)c2)n1 (stereo not drawn) [Compound 293, N^2-(4-methoxy-3-(3-(3-methylpyrrolidin-1-yl)propoxy)phenyl)-N^4-methylpyrimidine-2,4-diamine]
> 10 | > 10 | CNc1ccnc(Nc2cccc3oc(CCN(C)C)nc23)n1 [Compound 295]
> 10 | > 10 | CNc1ccnc(Nc2cccc(N3CC(N)CC3=O)c2)n1 (stereo not drawn) [Compound 296]
1 to 10 | > 10 | CNc1ccnc(Nc2cccc(N3CCC(N)C3)c2)n1 (stereo not drawn) [Compound 297]
< 0.1 | < 0.1 | CNc1ccnc(Nc2ccc(OC)c(OCCCN3CC4CC4C3)c2)n1 (stereo not drawn) [Compound 298, N^2-(3-(3-(3-azabicyclo[3.1.0]hexan-3-yl)propoxy)-4-methoxyphenyl)-N^4-methylpyrimidine-2,4-diamine]
< 0.1 | < 0.1 | CNc1ccnc(Nc2ccc(OC)c(OC[C@H](O)CN3CCCC3)c2)n1 [Compound 299, (R)-1-(2-methoxy-5-((4-(methylamino)pyrimidin-2-yl)amino)phenoxy)-3-(pyrrolidin-1-yl)propan-2-ol]
0.1 to 1 | 0.1 to 1 | CNc1ccnc(Nc2ccc(OC)c(OC[C@@H](O)CN3CCCC3)c2)n1 [Compound 300, (S)-1-(2-methoxy-5-((4-(methylamino)pyrimidin-2-yl)amino)phenoxy)-3-(pyrrolidin-1-yl)propan-2-ol]
